Test results: patent US11370803B2, “Heteroaryl plasma kallikrein inhibitors” (Takeda Pharmaceutical Company Limited, priority 2019, dated 2022)

Each molecule was assayed against human activated kallikrein enzyme (Homo sapiens (Human), UniProt P03952) (assay: Inhibition of human activated plasma kallikrein, fluorogenic peptide substrate assay (500 pM enzyme format)). Settings: 500 pM activated kallikrein, 300 uM Pro-Phe-Arg-7-amido-4-methylcoumarin substrate, 30 min preincubation, 10 min reaction at RT; read-out: Primary Dose Response Assay: Average EC50.
human activated kallikrein enzyme, sequence (P03952 391-638): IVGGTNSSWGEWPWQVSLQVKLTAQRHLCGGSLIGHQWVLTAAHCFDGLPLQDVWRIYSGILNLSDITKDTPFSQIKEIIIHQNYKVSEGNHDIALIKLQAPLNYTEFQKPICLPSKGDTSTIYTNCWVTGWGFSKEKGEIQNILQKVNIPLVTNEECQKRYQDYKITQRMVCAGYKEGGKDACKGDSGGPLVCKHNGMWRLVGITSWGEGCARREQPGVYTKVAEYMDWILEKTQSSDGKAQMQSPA
human activated kallikrein enzyme, sequence (P03952 20-390 partner): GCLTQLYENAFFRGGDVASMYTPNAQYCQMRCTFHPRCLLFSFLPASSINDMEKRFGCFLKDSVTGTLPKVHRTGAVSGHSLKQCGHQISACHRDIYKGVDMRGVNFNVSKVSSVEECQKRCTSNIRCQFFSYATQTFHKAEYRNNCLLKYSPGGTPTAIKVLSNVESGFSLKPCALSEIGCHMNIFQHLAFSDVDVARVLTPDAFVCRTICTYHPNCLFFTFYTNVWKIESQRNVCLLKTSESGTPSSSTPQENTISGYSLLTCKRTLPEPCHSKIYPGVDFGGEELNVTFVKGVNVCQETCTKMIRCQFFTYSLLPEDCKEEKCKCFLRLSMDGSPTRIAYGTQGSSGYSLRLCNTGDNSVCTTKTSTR
Assay type: biochemical
Method: Inhibitory Activity of Exemplary Compounds against Plasma Kallikrein. Example compounds were evaluated for inhibition of the human activated kallikrein enzyme in two formats of an assay employing a fluorogenic peptide substrate. In one assay format, the concentrations of reagents were as follows: 20 mM Tris pH 7.5, 1 mM EDTA, 150 mM sodium chloride, 0.1% PEG-400, 0.1% Triton X-100, 500 pM activated kallikrein enzyme, 300 uM Pro-Phe-Arg-7-amido-4-methylcoumarin substrate. Prior to reaction initiation with substrate, enzyme and inhibitors were preincubated for 30 min at RT. After initiation with substrate, reactions were incubated for 10 min at RT and fluorescence emission at 460 nm from 380 nm excitation measured with a microplate reader. In another assay format, the concentrations of reagents were as follows: 20 mM Tris pH 7.5, 1 mM EDTA, 150 mM sodium chloride, 0.1% PEG-400, 0.1% Triton X-100, 5 pM activated kallikrein enzyme, 300 uM Pro-Phe-Arg-7-amido-4-methylcoumarin substrate. Prior to reaction initiation with substrate, enzyme and inhibitors were preincubated for 30 min at RT. After initiation with substrate, reactions were incubated for 18 h at RT and fluorescence emission at 460 nm from 380 nm excitation measured with a microplate reader.
Table 1 provides the results of the assay in the format with 500 pM activated kallikrein assay. For the compounds listed in Table 1, the EC50 values are reported according to the following ranges: A≤50 nM; 50 nM<B≤200 nM; 200 nM<C≤1000 nM; 1000 nM<D.

`O=C(Cc1ncn2ccc(Cl)cc12)NCc1cn(Cc2cn3cc(C4CC4)ccc3n2)nn1` [Compound I-1, 2-(7-chloroimidazo[1,5-a]pyridin-1-yl)-N-((1-((6-cyclopropylimidazo[1,2-a]pyridin-2-yl)methyl)-1H-1,2,3-triazol-4-yl)methyl)acetamide] and `CC(NC(=O)Cc1ncn2ccc(Cl)cc12)c1cn(Cc2cn3cc(C4CC4)ccc3n2)nn1` (stereo not drawn) [Compound I-13, 2-(7-chloroimidazo[1,5-a]pyridin-1-yl)-N-(1-(1-((6-cyclopropylimidazo[1,2-a]pyridin-2-yl)methyl)-1H-1,2,3-triazol-4-yl)ethyl)acetamide] cannot be ordered by EC50: at most 0.05 µM for the first, at most 0.05 µM for the second.

Compared with `Fc1c(Cl)ccn2cnc(C(NCc3cn(Cc4cn5cc(C6CC6)ccc5n4)nn3)C(F)(F)F)c12` (stereo not drawn) [Compound I-2, 1-(7-chloro-8-fluoroimidazo[1,5-a]pyridin-1-yl)-N-((1-((6-cyclopropylimidazo[1,2-a]pyridin-2-yl)methyl)-1H-1,2,3-triazol-4-yl)methyl)-2,2,2-trifluoroethan-1-amine], `Fc1c(Cl)ccn2cnc(CNC(c3cnn(Cc4cn5cc(C6CC6)ccc5n4)c3)C(F)(F)F)c12` (stereo not drawn) [Compound I-16, N-((7-chloro-8-fluoroimidazo[1,5-a]pyridin-1-yl)methyl)-1-(1-((6-cyclopropylimidazo[1,2-a]pyridin-2-yl)methyl)-1H-pyrazol-4-yl)-2,2,2-trifluoroethan-1-amine] is lower in EC50: over 1 µM for the first, at most 0.05 µM for the second. The second is the more potent here.

`O=C(NCc1cn(Cc2cn3cc(C4CC4)ccc3n2)nn1)c1ncn2ccc(Cl)c(F)c12` [Compound I-3, 7-chloro-N-((1-((6-cyclopropylimidazo[1,2-a]pyridin-2-yl)methyl)-1H-1,2,3-triazol-4-yl)methyl)-8-fluoroimidazo[1,5-a]pyridine-1-carboxamide] and `Fc1c(Cl)ccn2cnc(CNCc3cn(Cc4cn5cc(C6CC6)ccc5n4)nn3)c12` [Compound I-11, 1-(7-chloro-8-fluoroimidazo[1,5-a]pyridin-1-yl)-N-((1-((6-cyclopropylimidazo[1,2-a]pyridin-2-yl)methyl)-1H-1,2,3-triazol-4-yl)methyl)methanamine] cannot be ordered by EC50: 0.05 to 0.2 µM for the first, at most 0.05 µM for the second.

`O=S(=O)(NCc1ncn2ccc(Cl)c(F)c12)c1cnn(Cc2cn3cc(C4CC4)ccc3n2)c1` [Compound I-4, N-((7-chloro-8-fluoroimidazo[1,5-a]pyridin-1-yl)methyl)-1-((6-cyclopropylimidazo[1,2-a]pyridin-2-yl)methyl)-1H-pyrazole-4-sulfonamide] and `O=S(=O)(NCc1ncn2ccc(Cl)c(F)c12)c1cn(Cc2cn3cc(C4CC4)ccc3n2)nn1` [Compound I-5, N-((7-chloro-8-fluoroimidazo[1,5-a]pyridin-1-yl)methyl)-1-((6-cyclopropylimidazo[1,2-a]pyridin-2-yl)methyl)-1H-1,2,3-triazole-4-sulfonamide] fall in the same range of EC50: 0.2 to 1 µM for the first, 0.2 to 1 µM for the second.

`O=S(=O)(NCc1cn(Cc2cn3cc(C4CC4)ccc3n2)nn1)c1ncn2ccc(Cl)c(F)c12` [Compound I-6, 7-chloro-N-((1-((6-cyclopropylimidazo[1,2-a]pyridin-2-yl)methyl)-1H-1,2,3-triazol-4-yl)methyl)-8-fluoroimidazo[1,5-a]pyridine-1-sulfonamide] and `CC(NS(=O)(=O)c1ncn2ccc(Cl)c(F)c12)c1cn(Cc2cn3cc(C4CC4)ccc3n2)nn1` (stereo not drawn) [Compound I-7, 7-chloro-N-(1-(1-((6-cyclopropylimidazo[1,2-a]pyridin-2-yl)methyl)-1H-1,2,3-triazol-4-yl)ethyl)-8-fluoroimidazo[1,5-a]pyridine-1-sulfonamide] cannot be ordered by EC50: at most 0.05 µM for the first, at most 0.05 µM for the second.

First: O=C(NCc1ncn2ccc(Cl)c(F)c12)c1cn2c(n1)CCC2c1cn2cc(C3CC3)ccc2n1 (stereo not drawn) [Compound I-8, N-((7-chloro-8-fluoroimidazo[1,5-a]pyridin-1-yl)methyl)-5-(6-cyclopropylimidazo[1,2-a]pyridin-2-yl)-6,7-dihydro-5H-pyrrolo[1,2-a]imidazole-2-carboxamide]
Second: O=C(NCc1ncn2ccc(Cl)c(F)c12)c1cnc2n1C(c1cn3cc(C4CC4)ccc3n1)CC2 (stereo not drawn) [Compound I-9, N-((7-chloro-8-fluoroimidazo[1,5-a]pyridin-1-yl)methyl)-5-(6-cyclopropylimidazo[1,2-a]pyridin-2-yl)-6,7-dihydro-5H-pyrrolo[1,2-a]imidazole-3-carboxamide]
The EC50 of the first is lower: at most 0.05 µM for the first, 0.2 to 1 µM for the second.

`N#Cc1ccn2cnc(CNC(=O)c3cnn(Cc4cn5cc(C6CC6)ccc5n4)c3)c2c1` [Compound I-10, N-((7-cyanoimidazo[1,5-a]pyridin-1-yl)methyl)-1-((6-cyclopropylimidazo[1,2-a]pyridin-2-yl)methyl)-1H-pyrazole-4-carboxamide] and `O=C(Cc1ncn2ccc(Cl)cc12)NC(c1cnn(Cc2cn3cc(C4CC4)ccc3n2)c1)C(F)(F)F` (stereo not drawn) [Compound I-19, 2-(7-chloroimidazo[1,5-a]pyridin-1-yl)-N-(1-(1-((6-cyclopropylimidazo[1,2-a]pyridin-2-yl)methyl)-1H-pyrazol-4-yl)-2,2,2-trifluoroethyl)acetamide] cannot be ordered by EC50: at most 0.05 µM for the first, 0.05 to 0.2 µM for the second.

Compared with `CC(NCc1ncn2ccc(Cl)c(F)c12)c1cn(Cc2cn3cc(C4CC4)ccc3n2)nn1` (stereo not drawn) [Compound I-12, N-((7-chloro-8-fluoroimidazo[1,5-a]pyridin-1-yl)methyl)-1-(1-((6-cyclopropylimidazo[1,2-a]pyridin-2-yl)methyl)-1H-1,2,3-triazol-4-yl)ethan-1-amine], `O=C(O)c1cc(C2CC2)cn2cc(Cn3cc(CNCc4ncn5ccc(Cl)c(F)c45)nn3)nc12` [Compound I-15, 2-((4-((((7-chloro-8-fluoroimidazo[1,5-a]pyridin-1-yl)methyl)amino)methyl)-1H-1,2,3-triazol-1-yl)methyl)-6-cyclopropylimidazo[1,2-a]pyridine-8-carboxylic Acid] is higher in EC50: 0.05 to 0.2 µM for the first, 0.2 to 1 µM for the second.

`COC(=O)c1cc(C2CC2)cn2cc(Cn3cc(CNCc4ncn5ccc(Cl)c(F)c45)nn3)nc12` [Compound I-14, Methyl 2-((4-((((7-chloro-8-fluoroimidazo[1,5-a]pyridin-1-yl)methyl)amino)methyl)-1H-1,2,3-triazol-1-yl)methyl)-6-cyclopropylimidazo[1,2-a]pyridine-8-carboxylate] and `O=C(O)CCc1cc(C2CC2)cn2cc(Cn3cc(CNCc4ncn5ccc(Cl)c(F)c45)nn3)nc12` [Compound I-17b, 3-(2-((4-((((7-chloro-8-fluoroimidazo[1,5-a]pyridin-1-yl)methyl)amino)methyl)-1H-1,2,3-triazol-1-yl)methyl)-6-cyclopropylimidazo[1,2-a]pyridin-8-yl)propanoic acid] cannot be ordered by EC50: at most 0.05 µM for the first, at most 0.05 µM for the second.

`CCOC(=O)CCc1cc(C2CC2)cn2cc(Cn3cc(CNCc4ncn5ccc(Cl)c(F)c45)nn3)nc12` [Compound I-17a, Ethyl 3-(2-((4-((((7-chloro-8-fluoroimidazo[1,5-a]pyridin-1-yl)methyl)amino)methyl)-1H-1,2,3-triazol-1-yl)methyl)-6-cyclopropylimidazo[1,2-a]pyridin-8-yl)propanoate] and `Fc1c(Cl)ccn2cnc(CNCc3cn(Cc4cn5cc(C6CC6)cc(-n6cnnc6)c5n4)nn3)c12` [Compound I-18, 1-(7-chloro-8-fluoroimidazo[1,5-a]pyridin-1-yl)-N-((1-((6-cyclopropyl-8-(4H-1,2,4-triazol-4-yl)imidazo[1,2-a]pyridin-2-yl)methyl)-1H-1,2,3-triazol-4-yl)methyl)methanamine] cannot be ordered by EC50: at most 0.05 µM for the first, at most 0.05 µM for the second.

Work on `CN1CCN(c2cc(C3CC3)cn3cc(Cn4cc(C(=O)NCc5ncn6ccc(Cl)c(F)c56)nn4)nc23)CC1` [Compound I-20, N-((7-chloro-8-fluoroimidazo[1,5-a]pyridin-1-yl)methyl)-1-((6-cyclopropyl-8-(4-methylpiperazin-1-yl)imidazo[1,2-a]pyridin-2-yl)methyl)-1H-1,2,3-triazole-4-carboxamide] yielded an EC50 of at most 0.05 µM.
